Test results reported in the supplement of paper PMC10307832.

Key:
Assay in all cases: relative viability (nuclei count vs DMSO), 5 days (fraction); higher = more cells survive
HCC-15 = test system: HCC-15
Summary of the method: (§1)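 Lung cancer cell lines were pin-tool dosed in 1536-well plates on the day after seeding, with either a lone drug or a fixed anchor-drug dose plus five library-drug doses (not always all listed) in √10 steps. Nuclei were counted on 4× images after 5 days. Relative viability is the ratio of treated-well to vehicle-well nuclei counts, with each value a median of duplicate plates.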

HCC-366 = test system: HCC-366
Summary of the method: as §1

NCI-H358 = test system: NCI-H358
Summary of the method: as §1

NCI-H1755 = test system: NCI-H1755
Summary of the method: as §1

NCI-H2342 = test system: NCI-H2342
Summary of the method: as §1

LC-2-ad = test system: LC-2-ad
Summary of the method: as §1

NCI-H1437 = test system: NCI-H1437
Summary of the method: as §1

EMC-BAC-2 = test system: EMC-BAC-2
Summary of the method: as §1

NCI-H2347 = test system: NCI-H2347
Summary of the method: as §1

NCI-H1793 = test system: NCI-H1793
Summary of the method: as §1

PC-14 = test system: PC-14
Summary of the method: as §1

NCI-H1792 = test system: NCI-H1792
Summary of the method: as §1

NCI-H23 = test system: NCI-H23
Summary of the method: as §1

NCI-H650 = test system: NCI-H650
Summary of the method: as §1

NCI-H1915 = test system: NCI-H1915
Summary of the method: as §1

NCI-H1395 = test system: NCI-H1395
Summary of the method: as §1

201T = test system: 201T
Summary of the method: as §1

Structure (SMILES): Cc1csc(=NC2CCCCC2)n1/N=C/c1ccc(O)c(O)c1O [MIM1] + NC(=O)Nc1cc(-c2cccc(F)c2)sc1C(=O)N[C@H]1CCCNC1 [AZD7762] (partner 0.2 µM)
- relative viability (HCC-15; first compound 0.2 µM): 1.2
- relative viability (HCC-15; first compound 2 µM): 1.23
- relative viability (HCC-15; first compound 6.325 µM): 0.808
- relative viability (HCC-15; first compound 20 µM): 0.179
- relative viability (HCC-366; first compound 0.2 µM): 0.318
- relative viability (HCC-366; first compound 2 µM): 0.181
- relative viability (HCC-366; first compound 6.325 µM): 0.093
- relative viability (HCC-366; first compound 20 µM): 0.0374
- relative viability (NCI-H358; first compound 0.2 µM): 0.496
- relative viability (NCI-H358; first compound 0.6325 µM): 0.512
- relative viability (NCI-H358; first compound 2 µM): 0.468
- relative viability (NCI-H358; first compound 6.325 µM): 0.342
- relative viability (NCI-H358; first compound 20 µM): 0.231
- relative viability (NCI-H1755; first compound 0.2 µM): 0.464
- relative viability (NCI-H1755; first compound 0.6325 µM): 0.436
- relative viability (NCI-H1755; first compound 2 µM): 0.433
- relative viability (NCI-H1755; first compound 6.325 µM): 0.38
- relative viability (NCI-H1755; first compound 20 µM): 0.354
- relative viability (NCI-H2342; first compound 0.2 µM): 0.414
- relative viability (NCI-H2342; first compound 0.6325 µM): 0.475
- relative viability (NCI-H2342; first compound 2 µM): 0.431
- relative viability (NCI-H2342; first compound 6.325 µM): 0.477
- relative viability (NCI-H2342; first compound 20 µM): 0.543
- relative viability (LC-2-ad; first compound 0.2 µM): 0.804
- relative viability (LC-2-ad; first compound 0.6325 µM): 0.706
- relative viability (LC-2-ad; first compound 2 µM): 0.9
- relative viability (LC-2-ad; first compound 6.325 µM): 0.389
- relative viability (LC-2-ad; first compound 20 µM): 0.234
- relative viability (NCI-H1437; first compound 0.2 µM): 1.02
- relative viability (NCI-H1437; first compound 0.6325 µM): 1.12
- relative viability (NCI-H1437; first compound 2 µM): 1.18
- relative viability (NCI-H1437; first compound 6.325 µM): 0.916
- relative viability (NCI-H1437; first compound 20 µM): 0.666
- relative viability (EMC-BAC-2; first compound 0.2 µM): 1.12
- relative viability (EMC-BAC-2; first compound 0.6325 µM): 0.776
- relative viability (EMC-BAC-2; first compound 2 µM): 1.09
- relative viability (EMC-BAC-2; first compound 6.325 µM): 0.999
- relative viability (EMC-BAC-2; first compound 20 µM): 0.314
- relative viability (NCI-H2347; first compound 0.2 µM): 0.689
- relative viability (NCI-H2347; first compound 0.6325 µM): 0.779
- relative viability (NCI-H2347; first compound 2 µM): 0.797
- relative viability (NCI-H2347; first compound 6.325 µM): 0.623
- relative viability (NCI-H2347; first compound 20 µM): 0.57
- relative viability (NCI-H1793; first compound 0.2 µM): 0.614
- relative viability (NCI-H1793; first compound 2 µM): 0.412
- relative viability (NCI-H1793; first compound 6.325 µM): 0.424
- relative viability (NCI-H1793; first compound 20 µM): 0.271
- relative viability (PC-14; first compound 0.2 µM): 0.353
- relative viability (PC-14; first compound 0.6325 µM): 0.244
- relative viability (PC-14; first compound 2 µM): 0.288
- relative viability (PC-14; first compound 6.325 µM): 0.311
- relative viability (PC-14; first compound 20 µM): 0.111
- relative viability (NCI-H1792; first compound 0.2 µM): 0.657
- relative viability (NCI-H1792; first compound 0.6325 µM): 0.565
- relative viability (NCI-H1792; first compound 2 µM): 0.733
- relative viability (NCI-H1792; first compound 6.325 µM): 0.559
- relative viability (NCI-H1792; first compound 20 µM): 0.858
- relative viability (NCI-H23; first compound 0.2 µM): 0.277
- relative viability (NCI-H23; first compound 0.6325 µM): 0.213
- relative viability (NCI-H23; first compound 2 µM): 0.192
- relative viability (NCI-H23; first compound 6.325 µM): 0.263
- relative viability (NCI-H23; first compound 20 µM): 0.139
- relative viability (NCI-H650; first compound 0.2 µM): 1.05
- relative viability (NCI-H650; first compound 0.6325 µM): 1.03
- relative viability (NCI-H650; first compound 2 µM): 0.866
- relative viability (NCI-H650; first compound 6.325 µM): 0.975
- relative viability (NCI-H650; first compound 20 µM): 0.271
- relative viability (NCI-H1915; first compound 0.2 µM): 0.691
- relative viability (NCI-H1915; first compound 0.6325 µM): 0.495
- relative viability (NCI-H1915; first compound 2 µM): 0.574
- relative viability (NCI-H1915; first compound 6.325 µM): 0.384
- relative viability (NCI-H1915; first compound 20 µM): 0.283
- relative viability (NCI-H1395; first compound 0.2 µM): 0.416
- relative viability (NCI-H1395; first compound 0.6325 µM): 0.409
- relative viability (NCI-H1395; first compound 2 µM): 0.338
- relative viability (NCI-H1395; first compound 6.325 µM): 0.387
- relative viability (NCI-H1395; first compound 20 µM): 0.337
- relative viability (201T; first compound 0.2 µM): 0.62
- relative viability (201T; first compound 0.6325 µM): 0.691
- relative viability (201T; first compound 2 µM): 0.588
- relative viability (201T; first compound 6.325 µM): 0.453
- relative viability (201T; first compound 20 µM): 0.305
